The record followed here is patent US20080108513A1, “Cellular Arrays” (Northwestern University, priority 2006, published 2008).

The structures appear in SMILES notation.

The assay concerns the target T1, ERα (Homo sapiens, UniProt P03372).
T1 sequence (P03372 1-595): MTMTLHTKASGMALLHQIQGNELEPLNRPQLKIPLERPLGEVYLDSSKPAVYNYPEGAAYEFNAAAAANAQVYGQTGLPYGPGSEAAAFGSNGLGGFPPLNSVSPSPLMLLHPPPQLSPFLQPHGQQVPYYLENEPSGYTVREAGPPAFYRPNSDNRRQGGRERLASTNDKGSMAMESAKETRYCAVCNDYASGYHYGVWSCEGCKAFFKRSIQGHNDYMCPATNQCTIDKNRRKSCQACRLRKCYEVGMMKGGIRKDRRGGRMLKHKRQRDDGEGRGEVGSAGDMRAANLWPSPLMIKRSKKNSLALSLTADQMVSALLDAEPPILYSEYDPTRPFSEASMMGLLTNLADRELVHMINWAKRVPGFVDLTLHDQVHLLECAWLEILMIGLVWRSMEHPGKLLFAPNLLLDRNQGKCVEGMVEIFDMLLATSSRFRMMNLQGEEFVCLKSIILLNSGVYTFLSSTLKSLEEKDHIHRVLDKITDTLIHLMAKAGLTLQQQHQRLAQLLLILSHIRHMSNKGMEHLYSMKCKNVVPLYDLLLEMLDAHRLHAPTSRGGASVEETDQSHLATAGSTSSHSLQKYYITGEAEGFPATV

Consider `C[C@]12CC[C@@H]3c4ccc(O)cc4C[C@@H](CCCCCCCCC[S+]([O-])CCCC(F)(F)C(F)(F)F)[C@H]3[C@@H]1CC[C@@H]2O` (some centres unmarked) [FUL, fulvestrant], for which the “blockade of ERα-stimulated activity by E2” value (10^−6 M FUL with 10^−9 M E2, MCF-7 cells on array) is recorded as “complete blockade”. Further, the “effect on expression of the pLUC plasmid (CMV promoter)” value (MCF-7 cells on array, 10^−9 M E2 or 10^−9 M E2+10^−6 M FUL) is listed as “lowered”.
